From publication PMC10619691, “Effect of cyclic substituents on the anti-cancer activity and DNA interaction of ruthenium(II) bis-phenanthroline dipyridoquinoline” (Frontiers in Molecular Biosciences, 2023)

Columns and labels:
[1] = system: A280-CP70 cisplatin-resistant ovarian cancer; assay: sulphorhodamine B (SRB) cytotoxicity assay; type: cell-based, human; settings: SRB assay, 72 h incubation; mean ± SEM
Experimental: (§1) The cytotoxicity profile of the ruthenium complexes […]-572, and POW-12A was assessed in various cancer cell lines, namely, human cervical cancer HeLa, prostate cancer cell line DU145, breast cancer cell line MDAMB231MB231, ovarian cancer cell line A2780, and cisplatin-resistant ovarian cancer cell line A2780-CP70, using the preferred screen of the National Cancer Institute, the sulphorhodamine (SRB) dye assay, and the trypan blue cell viability assay ([Skehan et al., 1990]; [Houghton et al., 2007]; [Strober, 2001]). To determine their selective toxicity profile, these complexes were also tested in a normal prostate cell line (PTN1A). From the similarity in chemical structures of the compounds, we deduced that a structure-activity relationship study will help elucidate key properties involved in the cytotoxic activity of this class of metal complexes. The sulphorhodamine B (SRB) assay was used to evaluate the cytotoxicity of each cancer line after treating them with the metal complexes in line with the previously established protocol ([Skehan et al., 1990]). A cell density of 3 × 10^4 cells/mL was treated with various concentrations (3, 10, 30, 50, and 100 μM) of each ruthenium complex by 1:200 dilutions of stock solutions (in DMSO) in culture media, using DMSO as a control. Then, 100 μL of the cell-drug suspension was added to the respective wells of a 96-well plate and incubated at 37°C for 72 h in a CO2-containing incubator. Following this, the cells were fixed using 25 ul of Carnoy's solution and left in the fridge (4°C) for 1 h. The plates were then rinsed with running water and tapped on paper to remove dead cells. The cells were then stained with 100 μL of sulphorhodamine B dye and left for 30 min, after which the dye was washed off using 1% acetic acid, and the plate was left to dry in the oven (60°C). The stained cells were then treated with 100 μL of Tris base (10 mM, pH 10) to solubilize the dye stain. Finally, the plates were analyzed using an Omega plate reader. Each assay was conducted in triplicate. % Cell response=Average of treated cells / Average of control cells x 100.

PNT1A normal prostate = assay: sulphorhodamine B (SRB) cytotoxicity assay; type: cell-based, human; settings: for IC50: SRB assay, 72 h incubation, mean ± SEM
Experimental: as §1

A2780 ovarian cancer = assay: sulphorhodamine B (SRB) cytotoxicity assay; type: cell-based, human; settings: for IC50: SRB assay, 72 h incubation, mean ± SEM
Experimental: as §1

HeLa cervical cancer = assay: sulphorhodamine B (SRB) cytotoxicity assay; type: cell-based, human; settings: 72 h incubation, mean ± SEM
Experimental: as §1

MDA-MB-231 (TNBC) = assay: sulphorhodamine B (SRB) cytotoxicity assay; type: cell-based, human; settings: 72 h incubation, mean ± SEM
Experimental: as §1

DU145 prostate cancer = assay: sulphorhodamine B (SRB) cytotoxicity assay; type: cell-based, human; settings: 72 h incubation, mean ± SEM
Experimental: as §1

CT-DNA = assay: viscometry of DNA with bound complex; type: binding, calf; settings: 25°C
From the text: This reduction reflects increased flexibility of the DNA due to electrostatic and steric factors, which is consistent with the LD results for POW-12A but can also occur if the DNA becomes kinked or bent upon binding a small molecule.
An uncalibrated Cannon-Manning extra-low charge semi-micro viscometer (size 75) was used to measure the relative intrinsic viscosity of dilute DNA solutions, according to the manufacturer’s instructions (Cannon Instrument Company) and as described previously ([MoradpourHafshejani et al., 2013]). The viscometer was immersed in a water bath thermostated at 25°C. The DNA concentration and viscometer volume ([…]) were kept constant for a series of added dye concentrations. The flow time for water was ∼177 s, and that for DNA solutions was >245 s. Measurements were carried out in triplicate and provided standard deviations of <±1 s. The flow times are related to the relative intrinsic viscosity according to Eq. 1, where [η] is the intrinsic viscosity in the presence of dye and [η]0 is the intrinsic viscosity of free DNA. t0, td, and tx represent the flow times for buffer only, naked DNA, and dye-bound DNA, respectively. […] If the persistence length is reduced or the DNA is bent (dynamically or statically), the slope will be lowered. tx−tt/td−tt3=η/η03=L/L0=1+αr. (1)

SMILES: F[P-](F)(F)(F)(F)F.F[P-](F)(F)(F)(F)F.[Ru+2].c1cnc2c(c1)c1ncc3c(c1c1cccnc12)CCC3.c1cnc2c(c1)ccc1cccnc12.c1cnc2c(c1)ccc1cccnc12 [POW-12A]
- IC50 [1]: 35 ± 3.47 µM
- IC50 (PNT1A normal prostate): > 100 µM
- IC50 (A2780 ovarian cancer): 12 ± 1.73 µM
- IC50 (HeLa cervical cancer): 63 ± 6.35 µM
- IC50 (MDA-MB-231 (TNBC)): > 100 µM
- IC50 (DU145 prostate cancer): 35 ± 6.93 µM
- effect on DNA viscosity / length (CT-DNA): reduces the viscosity of DNA

SMILES: F[P-](F)(F)(F)(F)F.F[P-](F)(F)(F)(F)F.[Ru+2].c1cnc2c(c1)c1ncc3c(c1c1cccnc12)CCCC3.c1cnc2c(c1)ccc1cccnc12.c1cnc2c(c1)ccc1cccnc12 [VNK-572]
- IC50 [1]: 15 ± 2.89 µM
- IC50 (PNT1A normal prostate): > 100 µM
- fold difference in sensitivity between normal prostate cells (PNT1A) and prostate cancer cell line DU145 (PNT1A normal prostate; from SRB IC50 values): more than five-fold
- IC50 (A2780 ovarian cancer): 10 ± 4.04 µM
- fold difference between the anti-cancer activities of VNK-754 and VNK-572 (A2780 ovarian cancer; more susceptible cancer cell lines (A2780 and DU145)): seven-fold
- IC50 (HeLa cervical cancer): 52 ± 6.35 µM
- IC50 (MDA-MB-231 (TNBC)): > 100 µM
- IC50 (DU145 prostate cancer): 19 ± 2.31 µM
- effect on DNA viscosity / length (CT-DNA): elongates DNA
